These results are taken from PubChem BioAssay (NCI).

Structures are written as SMILES. Values joined by “and” are separate entries in the source; they are usually repeats but may differ in a detail not shown here. Equal entries are not always repeated.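 In this assay, cells in 96-well plates receive the compound at five concentrations for 48 hours. Endpoints are linearly interpolated between the surrounding concentrations. GI50 is the concentration that inhibits growth by half. TGI: total growth inhibition.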

Test systems include LXFL 529 NSCLC; KM20L2 colon; DMS 273 small cell lung; HS 578T breast; T-47D breast; DU-145 prostate; NCI/ADR-RES ovarian; PC-3 prostate; BT-549 breast; MCF7 breast; MDA-MB-435.
Assay in all cases: NCI-60 cell line screen, 48 h

`CC1=C(C(=O)NCc2ccccc2)C(c2ccc(Cl)c(Cl)c2)C(C(=O)NCc2ccccc2)=C(C)N1`: the TGI in the test with LXFL 529 NSCLC, with KM20L2 colon and in the test with DMS 273 small cell lung was > 100 µM in each case.
Take `CC1=C(/C=C/C(=O)CC(=O)/C=C/C2=C(C)CCCC2(C)C)C(C)(C)CCC1`: the GI50 in the test with HS 578T breast is 14.7 µM; in the test on T-47D breast, 41.5 µM; in the test with DU-145 prostate it was 14.3 µM; in the test with NCI/ADR-RES ovarian it was 31.4 µM; with PC-3 prostate it was 17.6 µM; in the test with BT-549 breast, 33.9 µM. Moreover, the GI50 in the test on MCF7 breast was 22.7 µM; in the test on MDA-MB-435, 38.1 µM. The TGI was 68.4 µM in the test on HS 578T breast; > 100 µM with T-47D breast; > 100 µM with DU-145 prostate; > 100 µM in the test on NCI/ADR-RES ovarian; 75.2 µM with PC-3 prostate; > 100 µM in the test on BT-549 breast. For the same molecule, the TGI in the test with MCF7 breast was 72.9 µM; in the test on MDA-MB-435, > 100 µM.
Turning to `O=C(NCCc1ccccc1)Nc1ccc2cc3ccc(NC(=O)NCCc4ccccc4)cc3nc2c1`, the GI50 in the test on HS 578T breast was 0.276 µM; in the test with T-47D breast, 0.983 µM; in the test on DU-145 prostate, 1.24 µM; with NCI/ADR-RES ovarian, > 100 µM; in the test on PC-3 prostate, 1.63 µM; in the test with BT-549 breast, 1.64 µM. Besides, the GI50 is 0.29 µM in the test on MCF7 breast and 0.813 µM with MDA-MB-435. The TGI in the test on HS 578T breast was 0.933 µM; in the test with T-47D breast, 2.31 µM; in the test on DU-145 prostate, 2.76 µM; in the test with NCI/ADR-RES ovarian it was > 100 µM; in the test with PC-3 prostate, 3.59 µM; with BT-549 breast, 3.37 µM. Moreover, the TGI was 1.2 µM with MCF7 breast and 2.13 µM with MDA-MB-435.
Take `CN1CCN(c2ccc(OC(F)(F)F)c(Nc3ncc4c(n3)-c3c(c(C(N)=O)nn3CCO)CC4)c2)CC1`: the GI50 in the test on HS 578T breast is 0.164 µM and 0.184 µM; with T-47D breast, 0.944 µM and 0.538 µM; in the test with DU-145 prostate, 0.0349 µM and 0.0417 µM; in the test on NCI/ADR-RES ovarian, 1.19 µM and 1.04 µM; in the test on PC-3 prostate, 0.0663 µM and 0.0986 µM; in the test with BT-549 breast, 0.0875 µM and 0.176 µM. Further, the GI50 was 0.0235 µM and 0.0357 µM with MCF7 breast; 0.0165 µM and 0.0188 µM with MDA-MB-435. For the same molecule, the TGI with HS 578T breast is 18.5 µM and > 5 µM; in the test with T-47D breast, 40.8 µM and > 10 µM; in the test with DU-145 prostate, > 100 µM; with NCI/ADR-RES ovarian, > 62.6 µM; in the test with PC-3 prostate, > 82.4 µM; with BT-549 breast, 18 µM and > 10 µM. The TGI with MCF7 breast is 15.7 µM and > 10 µM; in the test with MDA-MB-435, 0.0542 µM and 0.0634 µM.
Consider `C/C=C/C/C=C/[C@H](C)C[C@H](O)[C@@H]1C[C@@H]2O[C@H]2/C=C/[C@@H]2OC(C)(C)O[C@H]2/C=C/C[C@H](C)CC(=O)O1`, for which the GI50 is 5.22 µM with HS 578T breast; 2.18 µM with T-47D breast; 12.3 µM in the test with DU-145 prostate; 3.28 µM in the test with NCI/ADR-RES ovarian; 5.75 µM in the test on PC-3 prostate; 16.3 µM in the test on BT-549 breast. The figures for the GI50 in the test on MCF7 breast and with MDA-MB-435 were 25.5 µM and 24 µM, respectively. The TGI is > 100 µM in the test with HS 578T breast; 8.53 µM in the test with T-47D breast; > 100 µM with DU-145 prostate; > 100 µM with NCI/ADR-RES ovarian; > 100 µM in the test with PC-3 prostate; > 100 µM with BT-549 breast. Further, the TGI in the test with MCF7 breast and with MDA-MB-435 was > 100 µM each time.
With `CNC(=O)c1cc(Oc2cccc3nc(NC(=O)Nc4cc(C(F)(F)F)cc(C(F)(F)F)c4)ccc23)ccn1`, the GI50 in the test with HS 578T breast is 2.57 µM; with T-47D breast, 4.13 µM; in the test with DU-145 prostate, 6.29 µM; in the test with NCI/ADR-RES ovarian, 5.62 µM; in the test on PC-3 prostate, 6.06 µM; in the test on BT-549 breast, 11.4 µM. Besides, the GI50 was 7.43 µM with MCF7 breast and 4.7 µM in the test on MDA-MB-435. Also, the TGI in the test on HS 578T breast came out at 13.5 µM; with T-47D breast, 31.1 µM; in the test with DU-145 prostate it was 65.9 µM; in the test with NCI/ADR-RES ovarian, 52 µM; in the test on PC-3 prostate, 38.2 µM; with BT-549 breast it was 55.6 µM. Besides, the values for the TGI in the test with MCF7 breast and in the test with MDA-MB-435 were 66.6 µM and > 100 µM, respectively.
For `CCN(CC)c1c(-c2ccccc2)n[nH]c1C(=O)OC`, the GI50 with HS 578T breast was 17 µM; with T-47D breast, 17.5 µM; in the test on DU-145 prostate it was 36.9 µM; in the test on NCI/ADR-RES ovarian it was 19.2 µM; in the test with PC-3 prostate it was 31.2 µM; in the test on BT-549 breast, 16.4 µM. Moreover, the GI50 in the test on MCF7 breast is 23.1 µM; in the test with MDA-MB-435, 20.1 µM. Further, the TGI was 49.4 µM with HS 578T breast; 64.8 µM in the test with T-47D breast; > 100 µM in the test with DU-145 prostate; 37.4 µM in the test with NCI/ADR-RES ovarian; > 100 µM with PC-3 prostate; 51.1 µM with BT-549 breast. Also, the values for the TGI in the test on MCF7 breast and in the test with MDA-MB-435 were 54.4 µM and 55.6 µM, respectively.
With `COc1cccc(-c2nn(-c3ccccc3)cc2-c2ccnc(NCCCNC(=O)c3cccc(C(F)(F)F)c3)c2)c1`, the GI50 in the test on HS 578T breast is 5.6 µM; in the test on T-47D breast, 2.33 µM; in the test with DU-145 prostate, 8.72 µM; in the test with NCI/ADR-RES ovarian, 3.54 µM; in the test with PC-3 prostate, 3.18 µM; with BT-549 breast it was 2.84 µM. The GI50 in the test on MCF7 breast is 3.54 µM; with MDA-MB-435 it was 3.27 µM. Also, the TGI with HS 578T breast amounted to 36.9 µM; in the test with T-47D breast, 8.4 µM; with DU-145 prostate it was 66.3 µM; with NCI/ADR-RES ovarian, 16.8 µM; in the test on PC-3 prostate, 24 µM; in the test on BT-549 breast, 9 µM. Besides, the values for the TGI in the test with MCF7 breast and in the test on MDA-MB-435 were 18.5 µM and 17.1 µM, respectively.
On to `O=c1[nH]c2cc([N+](=O)[O-])ccc2nc1/C(=N/Nc1ccccc1)C(O)c1ccco1` (centres undefined), for which the TGI in the test with LXFL 529 NSCLC, in the test on KM20L2 colon and in the test on DMS 273 small cell lung was > 100 µM each time.
Consider `C=CC(COC(=O)C(C)(C)OC(C)=O)c1ccc(OC(=O)C(C)C)c(OC)c1` (centres undefined), for which the TGI was 50.8 µM in the test on HS 578T breast; > 37.2 µM in the test with T-47D breast; 25.9 µM in the test with DU-145 prostate; > 84.9 µM in the test on NCI/ADR-RES ovarian; 27 µM in the test on PC-3 prostate; 22.5 µM with BT-549 breast. For the same molecule, the TGI in the test with MCF7 breast was > 22.8 µM; with MDA-MB-435 it was 27.8 µM.
In the case of `Cc1coc2c1C(=O)C(=O)c1ccccc1-2`, the TGI with LXFL 529 NSCLC was 1.41 µM; in the test with KM20L2 colon it was 11.2 µM; in the test on DMS 273 small cell lung, 3.33 µM.
